Where two headings read alike, the source gives them in different places.
How the values were obtained:
V1aR = biological target: T1, V1aR (Homo sapiens, UniProt P37288); assay: Ca2+ mobilization in cells stably expressing V1aR (FLIPR, antagonist mode); assay type: cell-based; conditions: V1a-CHO stably transfected cell line
T1 construct: expressed in transfected cells; host or cells: V1a-CHO stably transfected cell line

[1] = Pharmacokinetic determination in SD rats; assay type: in vivo; conditions: rat, female SD rats, plasma; for AUC(0-t): read-out: Area under the curve AUC0-t; for clearance: read-out: Clearance Cl; for half-life: read-out: Half-life T1/2 (converted)
Method: Test Example 3: Pharmacokinetic Determination in SD Rats
In this study, female SD rats were selected as test animals. The LC/MS/MS method was used to quantitatively determine the plasma drug concentrations of the test compounds at different time points after intravenous injection (2 mg/kg) or oral administration (5 mg/kg) in rats, so as to evaluate the pharmacokinetic profile of the test drugs in rats.
The example compounds of the present disclosure, made in house.
SD rats (female, 180-220 g, 6-8 weeks old, purchased from Beijing Vital River Laboratory Animal Technology Co., Ltd., with animal production license number SCXK (Beijing) 2021-0006).
Vehicle for intravenous administration: 5% DMSO+10% Solutol+85% Saline.
Vehicle for oral administration: 5% DMSO+95% PEG400.
The test compound, formulated as a clear solution or suspension, was administered to overnight-fasted SD rats via tail vein injection or oral gavage. For intravenous administration, blood samples (0.25 mL) were collected via jugular vein puncture at pre-dose (0 h) and 0.083, 0.25, 0.5, 1, 2, 4, 6, 8, and 24 h post-dose. The samples were placed into sodium heparin anticoagulant tubes, and the mixture was vortexed thoroughly and centrifuged at 6,000 rpm for 3 minutes at 4° C. For oral gavage, blood samples were collected via jugular vein puncture at pre-dose (0 h) and 0.083, 0.25, 1, 2, 4, 6, 8, and 24 h post-dose. The samples were placed into sodium heparin anticoagulant tubes, and the mixture was vortexed thoroughly and centrifuged at 6,000 rpm for 3 minutes. Plasma drug concentrations were determined using the LC-MS/MS method, and the relevant pharmacokinetic parameters were calculated using the non-compartmental model with linear-log trapezoidal method in Phoenix WinNonlin 8.2.0 pharmacokinetic software.

T1 sequence (P37288 whole entry, species assumed): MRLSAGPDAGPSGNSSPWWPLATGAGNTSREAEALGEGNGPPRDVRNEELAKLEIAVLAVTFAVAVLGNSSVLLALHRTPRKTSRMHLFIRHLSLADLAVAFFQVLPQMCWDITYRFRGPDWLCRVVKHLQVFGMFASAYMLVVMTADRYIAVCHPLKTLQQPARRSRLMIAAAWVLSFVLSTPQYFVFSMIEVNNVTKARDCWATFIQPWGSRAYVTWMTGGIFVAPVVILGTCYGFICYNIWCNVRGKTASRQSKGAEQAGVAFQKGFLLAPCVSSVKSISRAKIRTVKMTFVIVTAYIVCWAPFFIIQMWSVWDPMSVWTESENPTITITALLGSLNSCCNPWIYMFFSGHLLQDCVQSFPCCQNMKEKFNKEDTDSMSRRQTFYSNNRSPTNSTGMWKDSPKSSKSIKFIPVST

IC50 (V1aR)	AUC(0-t) ([1]; 2 mg/kg, IV (2 mpk))	AUC(0-t) ([1]; 5 mg/kg, PO (5 mpk))	clearance ([1]; 2 mg/kg, IV (2 mpk))	half-life ([1]; 2 mg/kg, IV (2 mpk))	half-life ([1]; 5 mg/kg, PO (5 mpk))	Compound
5280 nM						CON=C1CC(CO)N(C(=O)c2ccc(-c3cccc(C#N)c3C)c3c2OCO3)C1 (single isomer, unassigned) [Example C0099]
9810 nM						CO/N=C1/C[C@@H](CO)N(C(=O)c2ccc(-c3cc(F)cc(C#N)c3C)c3c2OCCO3)C1 [Example C0152, (S,Z)-5-Fluoro-3-(8-(2-(hydroxymethyl)-4-(methoxyimino)pyrrolidine-1-carbonyl)-2,3-dihydrobenzo[b][1,4]dioxin-5-yl)-2-methylbenzonitrile]

Further lines, the molecule ahead of its results:

Compound	IC50 (V1aR)	AUC(0-t) ([1]; 2 mg/kg, IV (2 mpk))	AUC(0-t) ([1]; 5 mg/kg, PO (5 mpk))	clearance ([1]; 2 mg/kg, IV (2 mpk))	half-life ([1]; 2 mg/kg, IV (2 mpk))	half-life ([1]; 5 mg/kg, PO (5 mpk))
CO/N=C1/C[C@@H]([C@@H](C)O)N(C(=O)c2ccc(-c3cccc(C#N)c3C)cc2)C1 (single isomer, unassigned) [Example C0112]	602 nM					
CO/N=C1/C[C@@H](CO)N(C(=O)c2ccc(-c3cccc(C#N)c3Cl)cc2)C1 [Example A0203, 2-Chloro-3-(4-[(2S, 4Z)-2-(hydroxymethyl)-4-(methoxyimino)pyrrolidine-1-carbonyl]phenyl)benzonitrile]	1360 nM	7160 ng·h/mL	16000 ng·h/mL	4.66 mL/min/kg	5.23 h	5.97 h
CO/N=C1/C[C@@H](CO)N(C(=O)c2ccc(-c3cccc(C#N)c3C)cc2)C1 [Example C0058, (S, Z)-4′-(2-(Hydroxymethyl)-4-(methoxyimino)pyrrolidine-1-carbonyl)-2-methyl-[1,1′-biphenyl]-3-carbonitrile]	2250 nM	4640 ng·h/mL	11400 ng·h/mL	7.4 mL/min/kg	3 h	3.11 h

— patent publication US20260248763A1 (BIO GENUINE (SHANGHAI) BIOTECH CO., LTD, priority 2023, published 2026)
